Data published in patent publication US20260215425A1, “NITRIFICATION INHIBITORS” (The University of Melbourne, priority 2022, published 2026).
Like-named read-outs stand apart in the source and are kept apart here.

Columns and labels:
[1] = tested on: hydroxylamine oxireductase (HOA); assay: standard nitrification inhibition assay with NH2OH as substrate; format: cell-based, N. multiformis; conditions: substrate NH2OH 3 mM, [inhibitor]=0.3 mM, pH 7.5, 30° C., 60 min
[2] = tested on: N. europaea; assay: mode of inhibition, Michaelis-Menten kinetics of NO2- production; format: cell-based; conditions: for Km: read-out: Km(app)
Experimental: These studies were performed using a modified procedure of that described earlier. In FIG. 4a, the rate of NO2^− production was measured as a function of [NH4^+] to determine whether the inhibitor follows Michaelis-Menten kinetics. The [NH4^+] was 0.003 mM, 0.03 mM, 0.5 mM, 1.5 mM, 3 mM, 10 mM, 15 mM and 30 mM. [4-MPT] remained constant at 0.3 mM. The Michaelis-Menten plots show saturation kinetics, where the NO2 production became independent of [NH4^+] beyond 0.5 mmol L^−1.
Mode of inhibition studies with remaining inhibitors N001, N003, N014 and N018 were conducted as a proof of concept.

[3] = tested on: N. multiformis; assay: standard nitrification inhibition assay (NO2- production, Griess); format: cell-based, Nitrosospira multiformis; conditions: [NH4+]=3 mM, [inhibitor]=0.3 mM (10 mol %), pH 7.5, 30° C., 60 min
Experimental: Cells of N. multiformis and N. europaea were cultivated to the mid-exponential growth phase (OD600=0.1, [NO2^−] approximately 800 μM) and harvested by filtration onto 0.2 μm membrane filters (Mixed Cellulose Ester (MCE), Sigma Aldrich). The cells were washed with 2×100 mL of 0.1 M sodium phosphate buffer (NaPB), containing 0.2 mM MgSO4 at pH 7.5. The cells were washed from the filter paper by transferring it to a sterile 50 mL tube and resuspending in NaPB (15 mL), followed by 5 s of vortexing (Ratek, Australia) and 3 s of sonication (Vevor, Australia). […] Experiments were performed in triplicate.
In a deep 96-well plate (2 mL capacity), 980 μL of the bacterial inoculum (OD600=0.03) was added to the inhibitor (10 μL, 30 mmol L^−1 in Milli-Q water), the solutions were mixed thoroughly and pre-incubated in the dark for 5 minutes at 100 rpm and 30° C. (NH4)2SO4 (10 μL, 150 mM, from a prepared sterile solution containing 19.8 g L^−1 (NH4)2SO4 in Milli-Q water) was then added using a multi-channel pipette. The plate was covered with a with an O2 permeable membrane to ensure aeration (Breathe-Easy® sealing membrane, Sigma Aldrich) and incubated in a temperature-regulated rotary incubator (Ratek, Australia) in the dark for 60 minutes at 30° C. and 100 rpm. An aliquot of the reaction solution ([…]) was transferred to a 96-well spectrophotometric plate to which 50 µL of Griess reagent was added. The colour was allowed to develop for 15 minutes at room temperature, and the absorbance was measured at 540 nm. Each assay was accompanied by control treatments to determine the 0% and 100% NO2 signal. The percentage inhibition was calculated according to eqn. 1 from the NO2 production of the cells in NaPB (i) without additive (‘untreated cells’: 0% signal), (ii) with [NH4^+]=3 mM (‘uninhibited’ cells: 100% signal) and (iii) with [NH4^+]=3 mM and [inhibitor]=0.3 mM and 0.03 mM (10 mol % and 1 mol % of [NH4^+], ‘inhibited cells’). Experiments were performed in triplicate.

[4] = inhibitor concentration 37.5 μM
[5] = inhibitor concentration 75.0 μM

SMILES: C#CCn1cc(C)nn1 [Compound 4-MPT, 4-Methyl-1-(prop-2-yn-1yl)-1H-1,2,3-triazole]
- % Inhibition NM [1]: 33 ± 4%
- mode of inhibition ([2]; NO2- production against [NH4+]): non-competitive inhibition mode
- Vmax(app) [2, 4]: 52.7 ± 2.0 μmol (mg protein min)^−1
- Km [2, 4]: 30.2 ± 0.3 µM
- Vmax(app) [2, 5]: 39.2 ± 2.0 μmol (mg protein min)^−1
- Km [2, 5]: 23.7 ± 4 µM
- % Inhibition NM [3]: 75%
